From patent publication US10131702B2, “Glucagon-GLP-1-GIP triple agonist compounds” (priority 2013, dated 2018)
Where two headings read alike, the source gives them in different places. Numbered stars: 1 amine (or outer) side, 2 acyl side, 3 side chain; on linkers, the order of the positions; unused ones are H or OH. Square brackets hold non-standard residues; d marks the D form. Side chains are listed from the residue outwards. Peptide text beside a SMILES is read from it. * marks the point of attachment. C18 diacid = O=C(O)CCCCCCCCCCCCCCCCC(=O)*; γGlu = O=C(O)[C@H](CCC(=O)[*:2])N[*:1]; AEEA = NCCOCCOCC(=O)O; Aib = CC(C)(N)C(=O)O

Experiments:
Type in all cases: cell-based
human GCG R = target: T1, human GCG R (Homo sapiens, UniProt P47871); assay: cAMP induction in HEK293 cells expressing human GCG R (AlphaScreen cAMP kit)
T1 construct: expressed in transfected cells
Method: (§1) Briefly, HEK293 cells expressing the human GIP R, GLP-1 R or GCG R (stable cell lines generated through transfection of the cDNA for human GIP R, GLP-1 R or GCG R and selection of stable clones) were seeded at 30,000 cells/well in 96-well microtiter plates coated with 0.01% poly-L-lysine, and grown for 1 day in culture in 200 μl growth medium (DMEM, 10% FCS, Penicillin (100 IU/ml), Streptomycin (100 μg/ml)). On the day of analysis, growth medium was removed and the cells were washed once with 150 μl Tyrode's buffer (Tyrode's Salts (9.6 g/l), 10 mM HEPES, pH 7.4). […] The Assay buffer was removed and cells are lysed in 80 μl Lysis buffer (0.1% w/v BSA, 5 mM HEPES, 0.3% v/v Tween-20) per well. From each well 10 μl of lysed cells were transferred to a 384-well plate and mixed with 15 μl bead-mix (1 Unit/15 μl anti-cAMP Acceptor Beads, 1 Unit/15 μl Donor Beads, and 1 Unit/15 μl Biotinylated cAMP in Assay Buffer). The plates were mixed and incubated in the dark for an hour at room temperature before measuring using an Envision™ plate reader (Perkin-Elmer).
(§2) The resulting cAMP curves were plotted as absolute cAMP concentrations (nM) over log (test compound concentration) and analyzed using the curve fitting program XLfit.
(§3) Parameters calculated to describe both the potency as well as the agonistic activity of each test compound on the receptors were:
(§4) EC50, a concentration resulting in a half-maximal elevation of cAMP levels, reflecting the potency of the test compound.

human GLP-1 R = target: T2, human GLP-1 R (Homo sapiens, UniProt P43220); assay: cAMP induction in HEK293 cells expressing human GLP-1 R (AlphaScreen cAMP kit)
T2 construct: expressed in transfected cells

human GIP R = target: T3, human GIP R (Homo sapiens, UniProt P48546); assay: cAMP induction in HEK293 cells expressing human GIP R (AlphaScreen cAMP kit)
T3 construct: expressed in transfected cells
T3 sequence (P48546 22-466): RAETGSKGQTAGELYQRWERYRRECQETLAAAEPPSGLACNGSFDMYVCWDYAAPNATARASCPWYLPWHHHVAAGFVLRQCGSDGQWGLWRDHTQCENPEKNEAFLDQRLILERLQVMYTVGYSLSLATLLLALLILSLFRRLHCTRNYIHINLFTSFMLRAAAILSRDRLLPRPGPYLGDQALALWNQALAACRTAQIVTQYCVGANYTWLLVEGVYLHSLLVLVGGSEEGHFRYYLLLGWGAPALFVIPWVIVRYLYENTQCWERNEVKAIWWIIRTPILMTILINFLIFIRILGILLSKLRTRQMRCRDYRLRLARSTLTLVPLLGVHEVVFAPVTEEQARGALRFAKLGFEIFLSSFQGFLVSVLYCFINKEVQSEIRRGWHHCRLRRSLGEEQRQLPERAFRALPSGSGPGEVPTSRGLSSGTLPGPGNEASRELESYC
Method: as §1, §2, §3, §4

[1] = Table 2, average EC50, cAMP, HEK293 cells expressing human GLP-1 R, read-out: GLP1 R (EC50 in nM)
[2] = GIP R (EC50 in nM), Table 2, average EC50, cAMP
[3] = GIP R (EC50 in nM), Table 2b (most comprehensive data), average EC50, cAMP
[4] = Table 2b (most comprehensive data), average EC50, cAMP, HEK293 cells expressing human GCG R, read-out: GCG R (EC50 in nM)
[5] = Table 2b (most comprehensive data), average EC50, cAMP, HEK293 cells expressing human GLP-1 R, read-out: GLP1 R (EC50 in nM)
[6] = Table 2b (most comprehensive data), average EC50, cAMP, read-out: GIP R (EC50 in nM)

T1 sequence (P47871 26-477): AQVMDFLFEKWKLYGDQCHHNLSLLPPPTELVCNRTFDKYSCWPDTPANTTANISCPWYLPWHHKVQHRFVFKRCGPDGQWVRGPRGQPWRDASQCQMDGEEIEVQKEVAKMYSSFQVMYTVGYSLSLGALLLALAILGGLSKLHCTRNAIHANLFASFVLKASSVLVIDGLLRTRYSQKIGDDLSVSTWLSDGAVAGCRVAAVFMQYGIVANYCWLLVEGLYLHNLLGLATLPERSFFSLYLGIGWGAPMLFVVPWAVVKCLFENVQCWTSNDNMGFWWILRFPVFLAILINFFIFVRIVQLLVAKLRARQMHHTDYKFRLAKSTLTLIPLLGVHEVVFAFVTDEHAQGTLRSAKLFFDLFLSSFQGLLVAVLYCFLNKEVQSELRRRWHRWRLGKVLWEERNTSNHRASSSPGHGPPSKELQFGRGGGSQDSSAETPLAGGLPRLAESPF
T2 sequence (P43220 24-463): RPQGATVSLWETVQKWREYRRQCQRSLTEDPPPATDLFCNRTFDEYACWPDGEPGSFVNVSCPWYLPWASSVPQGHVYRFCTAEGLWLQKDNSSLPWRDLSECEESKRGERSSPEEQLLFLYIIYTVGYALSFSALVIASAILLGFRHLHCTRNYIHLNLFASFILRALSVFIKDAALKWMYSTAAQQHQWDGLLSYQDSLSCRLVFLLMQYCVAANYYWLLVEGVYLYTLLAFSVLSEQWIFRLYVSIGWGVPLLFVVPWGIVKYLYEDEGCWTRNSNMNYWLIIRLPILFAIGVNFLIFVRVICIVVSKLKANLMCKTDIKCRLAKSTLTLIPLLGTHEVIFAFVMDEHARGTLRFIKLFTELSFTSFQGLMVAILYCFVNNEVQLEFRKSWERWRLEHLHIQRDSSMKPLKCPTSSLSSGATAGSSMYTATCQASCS

SMILES	EC50 (human GCG R)	EC50 (human GLP-1 R; [1])	EC50 (human GIP R; [2])	EC50 (human GIP R; [3])	EC50 (human GCG R; [4])	EC50 (human GLP-1 R; [5])	EC50 (human GIP R; [6])	EC50 (human GLP-1 R)
CC[C@H](C)[C@H](NC(=O)[C@H](CO)NC(=O)[C@H](Cc1ccc(O)cc1)NC(=O)[C@H](CC(=O)O)NC(=O)[C@H](CO)NC(=O)[C@@H](NC(=O)[C@H](Cc1ccccc1)NC(=O)[C@@H](NC(=O)CNC(=O)[C@H](CCC(N)=O)NC(=O)C(C)(C)NC(=O)[C@@H](N)Cc1ccc(O)cc1)[C@@H](C)O)[C@@H](C)O)C(=O)N[C@@H](Cc1ccc(O)cc1)C(=O)N[C@@H](CC(C)C)C(=O)N[C@@H](CCC(=O)O)C(=O)N[C@@H](CCCCN)C(=O)N[C@@H](CCCCN)C(=O)N[C@@H](C)C(=O)N[C@@H](C)C(=O)N[C@@H](CCCCN)C(=O)N[C@@H](CCC(=O)O)C(=O)N[C@@H](Cc1ccccc1)C(=O)N[C@H](C(=O)N[C@@H](CCC(=O)O)C(=O)N[C@@H](Cc1c[nH]c2ccccc12)C(=O)N[C@@H](CC(C)C)C(=O)N[C@@H](CC(C)C)C(=O)N[C@@H](CO)C(=O)N[C@@H](C)C(N)=O)C(C)C [Compound 20] (HELM PEPTIDE1{Y.[Aib].Q.G.T.F.T.S.D.Y.S.I.Y.L.E.K.K.A.A.K.E.F.V.E.W.L.L.S.A.[am]}$$$$V2.0)	0.057 nM	0.0094 nM	0.047 nM	0.009 nM				
CC[C@H](C)[C@H](NC(=O)[C@H](CO)NC(=O)[C@H](Cc1ccc(O)cc1)NC(=O)[C@H](CC(=O)O)NC(=O)[C@H](CO)NC(=O)[C@@H](NC(=O)[C@H](Cc1ccccc1)NC(=O)[C@@H](NC(=O)CNC(=O)[C@H](CCC(N)=O)NC(=O)C(C)(C)NC(=O)[C@@H](N)Cc1ccc(O)cc1)[C@@H](C)O)[C@@H](C)O)C(=O)N[C@@H](Cc1ccc(O)cc1)C(=O)N[C@@H](CC(C)C)C(=O)N[C@@H](CCC(=O)O)C(=O)N[C@@H](CCCCN)C(=O)N[C@@H](CCCCNC(=O)COCCOCCNC(=O)COCCOCCNC(=O)CC[C@H](NC(=O)CCCCCCCCCCCCCCCCC(=O)O)C(=O)O)C(=O)N[C@@H](C)C(=O)N[C@@H](CCC(N)=O)C(=O)N[C@@H](CCCNC(=N)N)C(=O)N[C@@H](C)C(=O)N[C@@H](Cc1ccccc1)C(=O)N[C@H](C(=O)N[C@@H](CCC(=O)O)C(=O)N[C@@H](Cc1c[nH]c2ccccc12)C(=O)N[C@@H](CC(C)C)C(=O)N[C@@H](CC(C)C)C(=O)N[C@@H](CCCNC(=N)N)C(=O)N[C@@H](C)C(N)=O)C(C)C [Compound 51] (H-Y[Aib]QGTFTSDYSIYLEKK([AEEA-AEEA-γGlu-C18 diacid])AQRAFVEWLLRA-NH2)					1.4 nM	0.026 nM	0.033 nM	
CC[C@H](C)[C@H](NC(=O)[C@H](CO)NC(=O)[C@H](Cc1ccc(O)cc1)NC(=O)[C@H](CC(=O)O)NC(=O)[C@H](CO)NC(=O)[C@@H](NC(=O)[C@H](Cc1ccccc1)NC(=O)[C@@H](NC(=O)CNC(=O)[C@H](CCC(N)=O)NC(=O)C(C)(C)NC(=O)[C@@H](N)Cc1ccc(O)cc1)[C@@H](C)O)[C@@H](C)O)C(=O)N[C@@H](Cc1ccc(O)cc1)C(=O)N[C@@H](CC(C)C)C(=O)N[C@@H](CC(=O)O)C(=O)N[C@@H](CCCCN)C(=O)N[C@@H](CCCCNC(=O)CC[C@H](NC(=O)CCCCCCCCCCCCCCCCC(=O)O)C(=O)O)C(=O)N[C@@H](C)C(=O)N[C@@H](CCC(N)=O)C(=O)N[C@@H](CCCNC(=N)N)C(=O)N[C@@H](C)C(=O)N[C@@H](Cc1ccccc1)C(=O)N[C@H](C(=O)N[C@@H](CCC(=O)O)C(=O)N[C@@H](Cc1c[nH]c2ccccc12)C(=O)N[C@@H](CC(C)C)C(=O)N[C@@H](CC(C)C)C(=O)N[C@@H](C)C(=O)N[C@@H](CCC(N)=O)C(=O)NCC(=O)N1CCC[C@H]1C(=O)N[C@@H](CO)C(=O)N[C@@H](CO)C(=O)NCC(=O)N[C@@H](C)C(=O)N1CCC[C@H]1C(=O)N1CCC[C@H]1C(=O)N1CCC[C@H]1C(=O)N[C@@H](CO)C(N)=O)C(C)C [Compound 34] (HELM PEPTIDE1{Y.[Aib].Q.G.T.F.T.S.D.Y.S.I.Y.L.D.K.K.A.Q.R.A.F.V.E.W.L.L.A.Q.G.P.S.S.G.A.P.P.P.S.[am]}|PEPTIDE2{[O=C(O)CCCCCCCCCCCCCCCCC(=O)[*:2]].[gGlu]}$PEPTIDE1,PEPTIDE2,17:R3-2:R2$$$V2.0)					0.11 nM		0.007 nM	0.0066 nM
CC(C)C[C@H](NC(=O)[C@H](CC(C)C)NC(=O)[C@H](Cc1c[nH]c2ccccc12)NC(=O)[C@H](CCC(=O)O)NC(=O)[C@@H](NC(=O)[C@H](Cc1ccccc1)NC(=O)[C@H](CC(=O)O)NC(=O)[C@H](Cc1c[nH]cn1)NC(=O)[C@H](C)NC(=O)[C@H](C)NC(=O)[C@H](CCCCN)NC(=O)[C@H](CO)NC(=O)[C@H](CC(=O)O)NC(=O)[C@H](CC(C)C)NC(=O)[C@H](Cc1ccc(O)cc1)NC(=O)[C@H](CCCCN)NC(=O)[C@H](CO)NC(=O)[C@H](Cc1ccc(O)cc1)NC(=O)[C@H](CC(=O)O)NC(=O)[C@H](CO)NC(=O)[C@@H](NC(=O)[C@H](Cc1ccccc1)NC(=O)[C@@H](NC(=O)CNC(=O)[C@H](CCC(N)=O)NC(=O)C(C)(C)NC(=O)[C@@H](N)Cc1ccc(O)cc1)[C@@H](C)O)[C@@H](C)O)C(C)C)C(=O)N[C@@H](CCCNC(=N)N)C(=O)N[C@@H](C)C(N)=O [Compound 3] (HELM PEPTIDE1{Y.[Aib].Q.G.T.F.T.S.D.Y.S.K.Y.L.D.S.K.A.A.H.D.F.V.E.W.L.L.R.A.[am]}$$$$V2.0)	0.022 nM	0.015 nM	0.13 nM	0.015 nM		0.022 nM		
CC[C@H](C)[C@H](NC(=O)[C@H](CO)NC(=O)[C@H](Cc1ccc(O)cc1)NC(=O)[C@H](CC(=O)O)NC(=O)[C@H](CO)NC(=O)[C@@H](NC(=O)[C@H](Cc1ccccc1)NC(=O)[C@@H](NC(=O)CNC(=O)[C@H](CCC(N)=O)NC(=O)C(C)(C)NC(=O)[C@@H](N)Cc1ccc(O)cc1)[C@@H](C)O)[C@@H](C)O)C(=O)N[C@@H](Cc1ccc(O)cc1)C(=O)N[C@@H](CC(C)C)C(=O)N[C@@H](CC(=O)O)C(=O)N[C@@H](CO)C(=O)N[C@@H](CCCCN)C(=O)N[C@@H](C)C(=O)N[C@@H](C)C(=O)N[C@@H](Cc1c[nH]cn1)C(=O)N[C@@H](CC(=O)O)C(=O)N[C@@H](Cc1ccccc1)C(=O)N[C@H](C(=O)N[C@@H](CCC(=O)O)C(=O)N[C@@H](Cc1c[nH]c2ccccc12)C(=O)N[C@@H](CC(C)C)C(=O)N[C@@H](CC(C)C)C(=O)N[C@@H](CO)C(=O)N[C@@H](C)C(N)=O)C(C)C [Compound 5] (HELM PEPTIDE1{Y.[Aib].Q.G.T.F.T.S.D.Y.S.I.Y.L.D.S.K.A.A.H.D.F.V.E.W.L.L.S.A.[am]}$$$$V2.0)	0.065 nM	0.0092 nM	0.17 nM	0.009 nM				
CC[C@H](C)[C@H](NC(=O)[C@H](CO)NC(=O)[C@H](Cc1ccc(O)cc1)NC(=O)[C@H](CC(=O)O)NC(=O)[C@H](CO)NC(=O)[C@@H](NC(=O)[C@H](Cc1ccccc1)NC(=O)[C@@H](NC(=O)CNC(=O)[C@H](CCC(N)=O)NC(=O)C(C)(C)NC(=O)[C@@H](N)Cc1ccc(O)cc1)[C@@H](C)O)[C@@H](C)O)C(=O)N[C@@H](Cc1ccc(O)cc1)C(=O)N[C@@H](CC(C)C)C(=O)N[C@@H](CC(=O)O)C(=O)N[C@@H](CCC(=O)O)C(=O)N[C@@H](CCCCN)C(=O)N[C@@H](C)C(=O)N[C@@H](C)C(=O)N[C@@H](Cc1c[nH]cn1)C(=O)N[C@@H](CC(=O)O)C(=O)N[C@@H](Cc1ccccc1)C(=O)N[C@H](C(=O)N[C@@H](CCC(=O)O)C(=O)N[C@@H](Cc1c[nH]c2ccccc12)C(=O)N[C@@H](CC(C)C)C(=O)N[C@@H](CC(C)C)C(=O)N[C@@H](CO)C(=O)N[C@@H](C)C(N)=O)C(C)C [Compound 9] (HELM PEPTIDE1{Y.[Aib].Q.G.T.F.T.S.D.Y.S.I.Y.L.D.E.K.A.A.H.D.F.V.E.W.L.L.S.A.[am]}$$$$V2.0)	0.097 nM	0.0055 nM	0.056 nM					
CC(C)C[C@H](NC(=O)[C@H](CC(C)C)NC(=O)[C@H](Cc1c[nH]c2ccccc12)NC(=O)[C@H](CCC(=O)O)NC(=O)[C@@H](NC(=O)[C@H](Cc1ccccc1)NC(=O)[C@H](CC(=O)O)NC(=O)[C@H](Cc1c[nH]cn1)NC(=O)[C@H](C)NC(=O)[C@H](C)NC(=O)[C@H](CCCCN)NC(=O)[C@H](CO)NC(=O)[C@H](CC(=O)O)NC(=O)[C@H](CC(C)C)NC(=O)[C@H](Cc1ccc(O)cc1)NC(=O)[C@H](CCCCN)NC(=O)[C@H](CO)NC(=O)[C@H](Cc1ccc(O)cc1)NC(=O)[C@H](CC(=O)O)NC(=O)[C@H](CO)NC(=O)[C@@H](NC(=O)[C@H](Cc1ccccc1)NC(=O)[C@@H](NC(=O)CNC(=O)[C@H](CCC(N)=O)NC(=O)[C@H](CO)NC(=O)[C@@H](N)Cc1ccc(O)cc1)[C@@H](C)O)[C@@H](C)O)C(C)C)C(=O)N[C@@H](CCCNC(=N)N)C(=O)N[C@@H](C)C(N)=O [Compound 1] (H-YSQGTFTSDYSKYLDSKAAHDFVEWLLRA-NH2)	0.013 nM	0.033 nM	0.38 nM	0.033 nM		0.013 nM		
